Patent US6464839B1, “Beta-elemene, method to prepare the same and uses thereof” (Yuan da International Group Limited, priority 1997, dated 2002)

What was measured:
cerebral neuroglioma = experiment: Cerebral neuroglioma, murine sub-renal capsule model; assay type: in vivo
Text: (D) Neuroglioma: It was indicated in the pharmacodynamic study of cerebral neuroglioma using murine sub-renal capsule model that the inhibition rate was 50-70%.

[1] = Side effects in animal pharmacodynamic studies (bone marrow, white blood cell count); assay type: in vivo
[2] = Passage through the brain-blood barrier; assay type: in vivo; details: work of the Department of Embryology, Dalian Medical University
[3] = tested on: thalamic glioblastoma; brain metastasis of lung cancer; experiment: Treatment of patients with brain tumors with beta-elemene emulsive injection; assay type: in vivo, human
Description: In two instances, patients at the Second Affiliated Hospital of the Dalian Medical University were treated with the beta-elemene composition as an emulsive injection. The medical records were kept at that hospital.
The patient was hospitalized for surgery in July 1995. […] A beta-elemene emulsive injection was employed through 600 ml cervical artery intubation and 400 ml intravenous drip alternately once per day.
Due to the lung metastasis and the age of the patient, surgery was difficult to perform. The patient was hospitalized in mid November 1996.
The patient was treated with beta-elemene as prepared herein. […] In the middle of December 1996 the patient had another CT scan.

[4] = tested on: murine Ehrlich ascites carcinoma; details: material with beta-elemene 65%, gamma and delta-elemene 20%, impurities 15%; cited from earlier work
[5] = tested on: rat ascitic reticulum cell sarcoma; details: material with beta-elemene 65%, gamma and delta-elemene 20%, impurities 15%; cited from earlier work
[6] = material with beta-elemene 65%, gamma and delta-elemene 20%, impurities 15%; cited from earlier work
S180 solid tumor = experiment: S180 solid tumor, animal pharmacodynamic study; details: injection
S180 ascites cancer = experiment: S180 ascites cancer, animal pharmacodynamic study; details: intra-peritoneal injection
hepatic solid tumor = experiment: Hepatic solid tumor, animal pharmacodynamic study
EAC = EAC ascites carcinoma, animal pharmacodynamic study; details: EAC ascites cancer, intra-peritoneal injection
L1210 leukemia = experiment: Murine leukemia L1210, animal pharmacodynamic study; details: injection
[7] = tested on: hepatic ascites carcinoma; experiment: Hepatic ascites carcinoma, animal pharmacodynamic study
[8] = Patient I, thalamic glioblastoma

C=CC1(C)CCC(C(=C)C)CC1C(=C)C (stereo not drawn) [beta-elemene, 1-methyl-1-vinyl-2,4-diisoprotenyl-cyclohexane]
inhibition rate (cerebral neuroglioma): 50-70%
bone marrow inhibition or reduction of white blood cell count [1]: no measurable bone marrow inhibition or reduction of white blood cell count
ability to pass through the brain-blood barrier (BBB) [2]: able to pass through the brain-blood barrier (BBB)
survival with the tumor [3, 8]: 11 months
tumor size on CT scan [3, 8]: no apparent reduction in tumor size
growth of the tumor ([3]; Patient I, thalamic glioblastoma, cervical artery intubation and intravenous drip alternately once per day): quickly controlled
prolongation of the life of the patient ([3]; Patient II, based upon previous experience with patients at that stage of illness): more than 4 months
tumor size on CT scan ([3]; Patient II, lung cancer with multiple metastasis to the brain, about one month of treatment): The size of the tumor was reduced
anti-tumor activity [4]: marked anti-tumor activity
anti-tumor activity [5]: marked anti-tumor activity
side effects during treatment [6]: Diarrhea and weight loss
inhibition rate (S180 solid tumor): 33-59%
life prolongation rate (S180 ascites cancer): 90-321%
inhibition rate (hepatic solid tumor): 10-30%
life prolongation rate (EAC): 85-310%
life prolongation rate (L1210 leukemia): 47-289%
life prolongation rate [7]: 103-224%
